Measurements as given in patent US6372727B1, “Metalloporphyrin treatment of neurologic disease” (UAB Research Foundation, priority 1999, dated 2002).

Legend:
[1] = Peroxynitrite-mediated nitration of GYA peptide; type: biochemical; details: percent of added peroxynitrite
[2] = system: isolated hearts; test: Isolated hearts, ischemia and reperfusion
[3] = Solubility and passage of membranes (statement); type: physicochemical
[4] = system: ALS-SOD1 (G93A) transgenic mice; test: Survival of ALS-SOD1 (G93A) transgenic mice; type: in vivo
Experimental: FIG. 13A: Transgenic mice (n=9) were injected intraperitoneally with 3 mg/kg/day of a low molecular weight (844.6) synthetic iron porphyrin. […] Treatment was continued until such time that signs of diaphragm weakness (labored breathing) necessitated sacrifice. A control group of transgenic mice was treated with vehicle only (phosphate-buffered saline). FIG. 13B: Transgenic mice were injected intraperitoneally with 1 mg/kg/day of a low molecular weight (844.6) synthetic iron porphyrin. Treatment began at day 60 prior to the onset of symptoms. A control group of transgenic mice was treated with vehicle only (phosphate-buffered saline).
Mice transgenic for the G93A mutated form of SOD1 are generally accepted as the standard model of motor neuron disease. […] This compound extended the mean survival time by 13 days (from 127 to 140 days) (FIG. 13A).
A group of G93A mice was treated with 1 mg/kg of FeTCPP intraperitoneally beginning at 60 days of age. As with the control group in FIG. 13A, none of the control group in this test survived past 132 days. However, the probability of survival at 140 days was about 37% and at approximately 180 days survival was still at 20%.

[5] = MP-catalyzed nitration of HPA: effect of pH, reductants and serum; type: biochemical
Experimental: Single additions of 100 μM peroxynitrite were made to reactions containing ascorbate or GSH. Three sequential additions of 100 μM peroxynitrite were made to all other reactions.
This level of bicarbonate results in rapid saturation of the solution with carbon dioxide (˜1 mM). Solutions were placed into a rapidly stirred cuvette and nine bolus additions (50 μM×3, 100 μM×3, and 200 μM×3) of peroxynitrite were made sequentially while the absorbance was monitored. Increasing amounts of peroxynitrite were added in a sequential manner in order to determine whether nitration efficiency varied with concentration and to determine whether nitration catalysis was maintained with multiple additions (see FIG. 6 inset). Nitration efficiency was defined as the amount of nitropeptide formed per amount of peroxynitrite added and was calculated for each peroxynitrite addition; the values shown are the average of all nine peroxynitrite additions. The absorbance changes associated with nitrotyrosine peptide production were monitored simultaneously at 380, 430, and 460 nm. The extinction coefficients for nitrated GYA at pH 7.4 are 4,400 M^−1cm^−1 at 430 nm and 2,200 M^−1cm^−1 at both 380 and 460 nm. […] Wavelengths used to quantify nitrotyrosine production were chosen to minimize interference by the particular metalloporphyrin used. Experiments using HPA as a nitration target (FIG. 7) contained 8 mM HPA in either 0.1 M potassium phosphate, pH 7.4 or 0.1 M sodium borate, pH 9.1.

[6] = MP 5 μM, GSH 2 mM, 0.1 M potassium phosphate pH 7.4, 37° C.
Experimental: Aliquots (14 μl) were removed at 10 min intervals and added to 1.4 of 0.1 M potassium phosphate, pH 7.4 containing 0.2 mM dithionitrobenzoic acid (Ellman's Reagent) and 50 μM EDTA. GSH concentration was determined by the change in 430 nm absorbance. The extinction coefficient at 430 nm was determined to be 13,900 M^−1cm^−1 using a fresh GSH solution standardized by weight.
In order to test the hypothesis that Mn(II)- or Fe(II)-porphyrins would be capable of carrying out two-electron reductions of peroxynitrite and thereby decreasing rather than increasing its reactivity, attempts were made to pre-reduce these transition metal-containing MPs prior to addition of peroxynitrite.

[7] = 1 mg/kg intraperitoneally beginning at 60 days of age

| oxidation by H2O2 (0.5 mM H2O2, 20 min) | Compound | average efficiency of nitration catalysis [1] [%] | protection of isolated hearts [2] | passage of cell membranes and the blood-brain-barrier [3] | water solubility [3] | probability of survival at 140 days [4, 7] | survival at approximately 180 days [4, 7] [%] | mean survival time ([4]; 5 mg/kg, treatment from onset of symptoms) [days] | extension of mean survival time ([4]; 5 mg/kg, treatment from onset of symptoms, versus vehicle) [days] | progression of motor neuron death in mice ([4]; G93A mutant of Cu,Zn superoxide dismutase transgene) | upper limit of survival time ([4]; administered at the onset of symptoms) | enhancement of nitration yield at pH 9.1 ([5]; 8 mM HPA, 10 μM MP, 0.1 M sodium borate pH 9.1, versus non-catalyzed) [fold] | effect of ascorbate and GSH on nitration enhancement ([5]; concentrations which eliminated non-catalyzed nitration) | ascorbate concentration giving complete inhibition of nitration enhancement ([5]; dose-dependent, not shown) [mM] | effect of serum on nitration enhancement ([5]; fresh human serum 1:10 added prior to peroxynitrite) | effect of HOCl on the MP (50 μM HOCl) | rate of GSH oxidation [6] [µM/min] |
| --- | --- | --- | --- | --- | --- | --- | --- | --- | --- | --- | --- | --- | --- | --- | --- | --- | --- |
| – | O=C(O)c1ccc(-c2c3nc(c(-c4ccc(C(=O)O)cc4)c4ccc([n-]4)c(-c4ccc(C(=O)O)cc4)c4nc(c(-c5ccc(C(=O)O)cc5)c5ccc2[n-]5)C=C4)C=C3)cc1.[Fe+2] [FeTCPP, Iron (III) meso 5,10,15,20-tetrakis-(4-carboxy-phenyl) porphyrin] | 22.7 | protects isolated hearts from the injurious effects of ischemia and reperfusion | readily cross cell membranes and the blood-brain-barrier | very water soluble | about 37% | 20 | 140 | 13 | slow the progression of motor neuron death | about 148 days | – | – | – | – | – | – |
| did not appear to oxidize | C[n+]1ccc(-c2c3nc(c(-c4cc[n+](C)cc4)c4ccc([n-]4)c(-c4cc[n+](C)cc4)c4nc(c(-c5cc[n+](C)cc5)c5ccc2[n-]5)C=C4)C=C3)cc1.[Cl-].[Cl-].[Cl-].[Cl-].[Cl-].[Mn+3] [MnTMPyP, Manganese (III) meso-tetra-(N-methyl-4-pyridyl)-porphine chloride] | – | – | – | – | – | – | – | – | – | – | 12.3 | much less inhibitory effect | 1.5 | much less effect | appeared to destroy the metal-pyrrole center | 22 |
